Series [1] concerns CREBH mRNA. The series can be described thus: CREBH mRNA induction in H2.35 cells (Northern blot, quantitative real-time RT-PCR). The following applies: murine H2.35 hepatoma cells; IL6 40 ng/ml, TNFα 20 ng/ml, IL1β 40 ng/ml, DTT 5 mM, Tg 0.5 μM, Tm 5 μg/ml, BFA 0.5 μg/ml; 4, 8, 12 hours. It is filed as cell-based. As for the experimental part: FIG. 1 depicts the induction of expression of CREBH during fetal liver development and by proinflammatory cytokines. (A) Structural comparison of CREBH and ATF6. The domains are indicated by residue numbers of amino acids. (B) Northern blot analysis of CREBH mRNA levels in various tissues from mice. Tissue samples were collected from 3-month-old wild-type C57BL/6J mice. Levels of β-actin mRNA were determined for control of sample loading. (C) Expression profile of CREBH mRNA in fetal livers during embryogenesis. (D) Induction of CREBH mRNA in murine hepatoma cell line H2.35 under IL6 (40 ng/ml) stimulation for various time points. For panels A-D, experiments were performed at least 3 times and representative data are shown.
FIG. 2 depicts the analysis of gene expression in H2.35 cells. H2.35 cells were treated with 20 ng/ml TNFα, 40 ng/ml IL1β, 20 μg.ml LPS, 5 mM DTT, 0.5 μM Tg, 5 μg/ml Tm or 0.5 μg/ml BFA for 4, 8 and 12 hours, respectively. Levels of CREBH mRNA (A) and spliced XBP1 mRNA (B) in H2.35 were determined by quantitative real-time RT-PCR. Fold changes of mRNA induction were determined after normalization of the mRNA levels to internal control 18S ribosomal RNA levels. […] However, expression from the SAP or CRP promoter-reporter plasmids is sufficiently measurable in H2.35 cells so that it is possible to investigate transcriptional activation effects of CREBH on the CRP and SAP promoters by reporter assays in H2.35 cells. These reporter experiments are not possible in non-hepatocyte cell lines. However, for non-hepatocyte cell lines, such as wild-type and mutant CHO cells, CREBH cleavage and activation could be measured using the UPRE reporter assay. (C) Summary of stimuli that induce CREBH mRNA, NF-κB activation and the UPR in H2.35 and HepG2 cells. (D) Expression of BiP and GRP94 in H2.35 cells over-expressing CREBH or ATF6. H2.35 cells in a 35 mm collagen-coated plate were transfected with 1.5 μg empty DNA vector, vector expressing the nuclear form of CREBH (CREBH-N) or vector expressing nuclear form of ATF6 (ATF6 p50), respectively. Expression levels of BiP and GRP 94 were determined by Western blot analysis by using a murine and —BiP monoclonal antibody and a murine anti-GRP94 monoclonal antibody, respectively. The membranes were re-blotted with an anti-α-actin antibody for control of sample loading.
Northern blot analysis was performed according to standard procedures (Sambrook et al., 1989). ^32P-labeled probes were prepared using a random prime labeling system (Amersham Pharmacia, Piscataway, N.J., USA). A 210 bp mouse CREBH cDNA fragment, a 250 bp mouse CRP cDNA fragment and a 260 bp mouse SAP cDNA fragment were amplified from murine total RNA by reverse transcription-PCR system (Roche Applied Science), respectively, and were used as probes for Northern blot analyses. Total RNA (15 μg) per sample purified from cultured cells or murine tissues was used for Northern blot analysis. Quantitative real-time RT-PCR was performed as previously described (Back et al., 2005). Briefly, total cellular RNA prepared was reverse-transcribed to cDNA using a random primer (Applied Biosystems). The reaction mixture, containing SYBR Green PCR Master Mix (Applied Biosystems), was run in a 7900HT Fast Real-Time PCR System (Applied Biosystems). Real-time PCR primer sequences for quantification of murine XBP1 mRNA splicing are: the forward primer 5′-[…]-3′, and the reverse primer 5′-[…]-3′. Other primer sequences were designed by Primer Express (Applied Biosystems).

The subject of series [2] is human CREBH. The series can be described thus: Cleavage of flag-tagged human CREBH stably expressed in H2.35 cells (Western blot, cell fractionation). It is filed as cell-based. The following applies: H2.35 cells stably expressing flag-tagged human CREBH; 8 hours; BFA 0.5 μg/ml, TNFα 20 ng/ml, IL6 40 ng/ml, DTT 5 mM, Tg 0.5 μM, Tm 5 μg/ml. As for the experimental part: FIG. 3 depicts the effects of ER stress on CREBH: proteolytic cleavage of CREBH to release its N-terminal fragment that translocates into the nucleus. (A) Illustration of transmembrane domains and lumenal domains of SREBP, ATF6, Luman and CREBH in human (hs), mouse (mm). The conserved residues for S1P and S2P recognition are highlighted. (B) Cleavage of CREBH in H2.35 cells under different stimuli. H2.35 cells stably expressing flag-tagged human CREBH were treated with 0.5 μg/ml BFA, 20 ng/ml TNFα, 40 ng/ml IL6, 5 mM DTT, 0.5 μM Tg or 5 μg/ml Tm for 8 hours. Untransfected H2.35 cells (lane 1) and the H2.35 cells that stably express human CREBH (lane 2) were cultured under normal conditions as control. Total cell lysates were collected for Western blot analysis by using an anti-flag monoclonal antibody (upper panel). Levels of α-actin were determined for control of protein loading (lower panel). (C) Cleavage of CREBH in H2.35 cells under Tm treatment for various time periods. The H2.35 cells stably expressing flag-tagged CREBH were cultured in the absence or presence of Tm (5 μg/ml) for 4, 8 or 12 hours. Membrane fractions were isolated from the total cell lysates, and were subjected to Western blot analysis of CREBH and calnexin, respectively. Nuclear fractions were isolated from the same total cell lysates and subjected to Western blot analysis of CREBH and PARP, respectively. (D) Translocation of CREBH in COS7 cells. COS7 cells were co-transfected with a construct expressing flag-tagged full-length CREBH (CREBH-F) or CREBH-ΔC and a construct expressing KDEL-RFP, and were then cultured in the absence or presence of Tm (5 μg/ml) for 4 hours. Cells were then stained with FITC-conjugated anti-flag antibody and subjected to Zeiss Confocal Microscope analysis. Magnification: 40×10.
For analysis of expression and cleavage of CREBH protein, total cell lysates were prepared from H2.35 cells or COS7 cells using Nonidet P-40 lysis buffer (1% NP-40, 50 mM Tris-HCl at pH 7.5, 150 mM NaCl, 0.05% SDS) supplemented with protease inhibitors (Complete Mini from Roche Applied Science), 0.1 mM sodium vanadate, and 1 mM sodium fluoride. Membrane and nuclear fractions of cell lysates were isolated as previously described (Dignam et al., 1983). The total cell lysate, membrane and nuclear fractions were subjected to SDS-PAGE and then analyzed by Western blot using anti-flag monoclonal antibody or other antibodies. Immunoprecipitation and Western blot analyses of ATF6 and CREBH interaction in 293T cells expressing flag-tagged CREBH protein were performed by using anti-human ATF6 and anti-flag antibodies. Total cell lysates from 293T cells transfected with control vector or pFlag-CREBH-ΔC were immunoprecipitated with anti-human ATF6 polyclonal antibody and anti-flag antibody, respectively. The immunoprecipitated cell lysates were then subjected to Western blotting by using anti-flag antibody to detect CREBH protein and using anti-human ATF6 antibody to detect ATF6 protein, respectively. The same total cell lysates were subjected to Western blotting by using anti-flag antibody to detect expression of CREBH protein in the transfected cells. For detecting endogenous CREBH protein in the liver extracts, an anti-mouse CREBH polyclonal antibody was raised in rabbits against a purified mouse CREBH peptide composed of amino acids 92-109 [[…]]. The rabbit anti-human ATF6 polyclonal antibody was generated in the inventor's laboratory. The anti-mouse calnexin monoclonal antibody and the anti-mouse monoclonal PRAP antibody were purchased from Stressgen Biotechnologies (Victoria, BC, Canada) and BD Bioscience (Mountain View, Calif., USA), respectively.

The test system of series [3] is BiP, CHOP, EDEM, spliced XBP1, SAP and CRP mRNAs. The series can be described thus: UPR and APR mRNA induction in mouse liver after injection (quantitative real-time RT-PCR). It is filed as in vivo. As to conditions: 24 hours after injection; for fold increases in UPR mRNA levels relative to those observed after injection of Tm: liver; for levels of spliced XBP1 mRNA and mRNA encoding EDEM in the liver: wild-type mice.
Experimental: Levels of spliced XBP1 mRNA were determined by quantitative real-time RT-PCR (lower panel). […] (B) Induction of CRP, SAP, BiP and spliced XBP1 mRNAs in mice injected with Tm. C57BU6J mice at 3-months of age were injected intraperitoneally with Tm (2 mg/kg body weight) in 150 mM dextrose solution. Mice were injected with the same volume of dextrose solution as a control. Liver tissues were collected from mice at 24 hours after injection for RNA isolation. (C-E) Induction of the BiP, CHOP, EDEM, spliced XBP1, SAP and CRP mRNAs in mice challenged with IL6, IL1β, LPS or Tm. Wild-type C57B1/6J mice at 3-months of age were intraperitoneally injected with recombinant murine IL6 (25 ng/gram body weight), recombinant murine IL1β (25 ng/gram body weight), LPS (3 μg/gram body weight) or Tm (2 μg/gram body weight). Mice were injected with the same volume of NaCL (for panels C and D) or dextrose (for panels E) solution as controls. At 24 hours after injection, liver samples were collected for isolating total RNA. Quantitative real-time RT-PCR was used to determine the mRNA levels. Fold changes of mRNA induction were determined after normalization of the mRNA levels to internal control 18S ribosomal RNA levels. Each bar denotes the mean±S.D., n=5 mice per injection.
Quantitative real-time RT-PCR was performed as previously described (Back et al., 2005). Briefly, total cellular RNA prepared was reverse-transcribed to cDNA using a random primer (Applied Biosystems). The reaction mixture, containing SYBR Green PCR Master Mix (Applied Biosystems), was run in a 7900HT Fast Real-Time PCR System (Applied Biosystems). Real-time PCR primer sequences for quantification of murine XBP1 mRNA splicing are: the forward primer 5′-[sequence]-3′, and the reverse primer 5′-[sequence]-3′. Other primer sequences were designed by Primer Express (Applied Biosystems).

From patent publication US20070111258A1, “Compositions and methods for modulating the acute phase response” (priority 2005, published 2007) come the findings set out here.

As to `O[C@H](CS)[C@H](O)CS` (racemic) [DTT, dithiothreitol], the “induction of CREBH mRNA” value in series [1] is reported as “significantly induced”. In addition, the “cleavage of CREBH to release a 50 kD N-terminal fragment” value in series [2] was “significantly induced cleavage of CREBH”.
For `C[C@H]1CCC/C=C/[C@@H]2C[C@H](O)C[C@H]2[C@H](O)/C=C/C(=O)O1` [BFA, Brefeldin A], in that order: “significantly induced” and “induced cleavage of CREBH”.
The like results for tumor necrosis factor α [TNFα] were, in that order, “induced in a time-dependent manner” and “neither of them significantly induced CREBH cleavage”.
The like results for `C/C=C(/C)C(=O)O[C@H]1C(C)=C2[C@H]([C@@H]1OC(=O)CCCCCCC)[C@@](C)(OC(C)=O)C[C@H](OC(=O)CCC)[C@@]1(O)[C@H]2OC(=O)[C@@]1(C)O` [Tg, thapsigargin] were, in that order, “significantly induced” and “significantly induced cleavage of CREBH”.

B1: interleukin-6 (protein, UniProt P08505 25-211, looked up)
Interleukin-6: FPTSQVRRGDFTEDTTPNRPVYTTSQVGGLITHVLWEIVEMRKELCNGNSDCMNNDDALAENNLKLPEIQRNDGCYQTGYNQEICLLKISSGLLEYHSYLEYMKNNLKDNKKDKARVLQRDTETLIHIFNQEVKDLHKIVLPTPISNALLTDKLESQKEWLRTKTIQFILKSLEEFLKVTLRSTRQT
notes: pro-inflammatory cytokine; recombinant murine IL6 in vivo
For B1, in series [1], the “induction of CREBH mRNA” value was “induced in a time-dependent manner”. Further, in series [2], the “cleavage of CREBH to release a 50 kD N-terminal fragment” value is “neither of them significantly induced CREBH cleavage”. Also, in series [3], the “fold increases in UPR mRNA levels relative to those observed after injection of Tm” value is listed as “approximately 50 % of those observed after injection of Tm”; the “levels of spliced XBP1 mRNA and mRNA encoding EDEM in the liver” value is “also increased”.

B2: IL1β: pro-inflammatory cytokine; recombinant murine IL1β in vivo (protein, UniProt P10749 118-269, looked up)
Interleukin-1 beta: VPIRQLHYRLRDEQQKSLVLSDPYELKALHLNGQNINQQVIFSMSFVQGEPSNDKIPVALGLKGKNLYLSCVMKDGTPTLQLESVDPKQYPKKKMEKRFVFNKIEVKSKVEFESAEFPNWYISTSQAEHKPVFLGNNSGQDIIDFTMESVSS
B2: in series [1], the “induction of CREBH mRNA” value is “induced in a time-dependent manner”. Moreover, in series [3], the “fold increases in UPR mRNA levels relative to those observed after injection of Tm” value is listed as “approximately 50 % of those observed after injection of Tm”; the “levels of spliced XBP1 mRNA and mRNA encoding EDEM in the liver” value is given as “also increased”.
